Assay results as given in ChEMBL document CHEMBL1201862, “PubChem BioAssay data set” (2004).
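Assay format: 96-well plates, 48-hour exposure. GI50: concentration for 50% inhibition of growth.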 The source made the active and inactive calls. Cut-off read from the data, not from the text of the source: active = GI50 up to about 1.1 µM and inactive = higher.

Key:
Assay in all cases: growth of human tumour cells (NCI), 48 h
A498 = tested on: A498
Hs-578T = tested on: Hs-578T
DU-145 = tested on: DU-145
T47D = tested on: T47D
SK-MEL-5 = tested on: SK-MEL-5
MOLT-4 = tested on: MOLT-4
ACHN = tested on: ACHN
MDA-MB-231 = tested on: MDA-MB-231
BT-549 = tested on: BT-549
UO-31 = tested on: UO-31
LOX IMVI = tested on: LOX IMVI
HCT-116 = tested on: HCT-116
SF-295 = tested on: SF-295
SF-268 = tested on: SF-268
786-0 = tested on: 786-0
K562 = tested on: K562
RPMI-8226 = tested on: RPMI-8226
MDA-N = tested on: MDA-N
CCRF-CEM = tested on: CCRF-CEM
NCI-H460 = tested on: NCI-H460
SN12C = tested on: SN12C
PC-3 = tested on: PC-3
SK-MEL-2 = tested on: SK-MEL-2
SF-539 = tested on: SF-539
CAKI-1 = tested on: CAKI-1
OVCAR-8 = tested on: OVCAR-8
SK-MEL-28 = tested on: SK-MEL-28
TK-10 = tested on: TK-10
HCC 2998 = tested on: HCC 2998
OVCAR-5 = tested on: OVCAR-5
MCF7 = tested on: MCF7
M14 = tested on: M14
SR = tested on: SR
EKVX = tested on: EKVX
NCI-H522 = tested on: NCI-H522
NCI/ADR-RES = tested on: NCI/ADR-RES
HCT-15 = tested on: HCT-15
NCI-H23 = tested on: NCI-H23
NCI-H226 = tested on: NCI-H226
SNB-75 = tested on: SNB-75
HOP-62 = tested on: HOP-62
HT-29 = tested on: HT-29
A549 = tested on: A549
MDA-MB-435 = tested on: MDA-MB-435
HOP-92 = tested on: HOP-92
UACC-257 = tested on: UACC-257
KM12 = tested on: KM12
OVCAR-4 = tested on: OVCAR-4
SW-620 = tested on: SW-620
UACC-62 = tested on: UACC-62
COLO 205 = tested on: COLO 205
SK-OV-3 = tested on: SK-OV-3
U-251 = tested on: U-251
RXF 393 = tested on: RXF 393
OVCAR-3 = tested on: OVCAR-3
Malme-3M = tested on: Malme-3M
IGROV-1 = tested on: IGROV-1
HL-60 = tested on: HL-60
SNB-19 = tested on: SNB-19

Measured: GI50

O=[N+]([O-])c1ccc(NN=C2c3ccccc3Cc3ccccc32)c([N+](=O)[O-])c1
6.43 µM: HCT-15
inactive: A498 > 92 µM | Hs-578T 4.07 µM | DU-145 > 30.4 µM | T47D 35.8 µM | SK-MEL-5 4.27 µM | MOLT-4 6.87 µM | ACHN 17.7 µM | MDA-MB-231 24.4 µM | BT-549 > 100 µM | UO-31 > 26.4 µM | LOX IMVI 7.87 µM | HCT-116 5.37 µM | SF-295 3.71 µM | SF-268 14.3 µM | 786-0 10.9 µM | K562 4.32 µM | RPMI-8226 8.91 µM | MDA-N 1.88 µM | CCRF-CEM 3.1 µM | NCI-H460 3.91 µM | SN12C > 67.5 µM | PC-3 4.95 µM | SK-MEL-2 3.44 µM | SF-539 8.79 µM | CAKI-1 9.51 µM | OVCAR-8 45.8 µM | SK-MEL-28 > 81.1 µM | TK-10 > 100 µM | HCC 2998 6.41 µM | OVCAR-5 12.3 µM | MCF7 4.23 µM | M14 5.81 µM | SR 2.07 µM | EKVX 5.37 µM | NCI-H522 2.13 µM | NCI/ADR-RES 4.82 µM | NCI-H23 15 µM | NCI-H226 29.6 µM | SNB-75 4.59 µM | HOP-62 6.92 µM | HT-29 2.88 µM | A549 > 21.1 µM | MDA-MB-435 1.79 µM | HOP-92 20.8 µM | UACC-257 6.35 µM | KM12 2.98 µM | OVCAR-4 13.3 µM | SW-620 5.85 µM | UACC-62 5.38 µM | COLO 205 4.52 µM | SK-OV-3 7.74 µM | U-251 4.5 µM | RXF 393 > 24.4 µM | OVCAR-3 2.39 µM | Malme-3M 3.39 µM | IGROV-1 4.97 µM

CCC(=O)c1ccc2[nH]c3c(C)c4c(O)cc(C)nc4c(C)c3c2c1
inactive: A498 > 100 µM | Hs-578T > 100 µM | DU-145 > 100 µM | T47D > 100 µM | SK-MEL-5 > 100 µM | MOLT-4 > 100 µM | ACHN > 100 µM | MDA-MB-231 40.8 µM | BT-549 > 100 µM | UO-31 > 100 µM | LOX IMVI > 100 µM | HCT-116 > 100 µM | SF-295 > 100 µM | HL-60 > 100 µM | SF-268 > 100 µM | 786-0 > 100 µM | MDA-N > 100 µM | CCRF-CEM > 100 µM | NCI-H460 > 100 µM | PC-3 > 100 µM | SK-MEL-2 > 100 µM | SF-539 > 100 µM | CAKI-1 > 100 µM | OVCAR-8 > 100 µM | SK-MEL-28 > 100 µM | TK-10 63.2 µM | HCC 2998 > 100 µM | OVCAR-5 > 100 µM | MCF7 > 100 µM | SNB-19 > 100 µM | M14 > 100 µM | SR 40.6 µM | EKVX > 100 µM | NCI-H522 > 100 µM | NCI/ADR-RES > 100 µM | NCI-H23 > 100 µM | NCI-H226 > 100 µM | SNB-75 > 100 µM | HOP-62 92 µM | HT-29 > 100 µM | A549 > 100 µM | MDA-MB-435 > 100 µM | HOP-92 4.3 µM | UACC-257 > 100 µM | KM12 > 100 µM | OVCAR-4 > 100 µM | SW-620 > 100 µM | COLO 205 > 100 µM | U-251 42.6 µM | RXF 393 > 100 µM | Malme-3M > 100 µM | IGROV-1 > 100 µM
> 100 µM: HCT-15
